This is an account of results in patent publication US20050197350A1, “Novel quinoline, tetrahydroquinazoline, and pyrimidine derivatives and methods of treatment related to the use thereof” (TAISHO PHARMACEUTICAL CO., LTD., priority 2003, published 2005).

The subject of the assay is MCH receptors. Kind of assay: MCH receptor activity class (method not given).
[1] abbreviates: class by percent of control at 10^-7 M or IC50.
[2] abbreviates: MCH receptor, class by percent of control at 10^-7 M or IC50.
The mark [3] stands for this setting: activity class 1-3: percent of control at 10^-7 M or IC50.
Setting [4] is: class by percent of control at 10^−7 M or IC50.

Take `CCc1ccccc1NC(=S)N[C@H]1CC[C@@H](Nc2nccc(N(C)C)n2)CC1` [compound 2268]: under setting [1], the class was 3 (Class 3 The value of percent of control at 10^−7 M was more than 60% or the value of IC50 was more than 200 nM.). On to `COc1ccc(C(=O)N[C@H]2CC[C@@H](Nc3nccc(N(C)C)n3)CC2)cc1OCc1ccccc1` [compound 889, 3-(benzyloxy)-N-(cis-4-{[4-(dimethylamino)pyrimidin-2-yl]amino}cyclohexyl)-4-methoxybenzamide], for which, under setting [1], the class is listed as 1 (Class 1: The value of percent of control at 10^−7 M was less than 40% or the value of IC50 was less than 50 nM.).

With `CCOC(=O)CNC(=O)N[C@H]1CC[C@@H](Nc2nc3c(c(N(C)C)n2)CCCC3)CC1` [compound 1822], the class under setting [1] is reported as 3 (Class 3 The value of percent of control at 10^−7 M was more than 60% or the value of IC50 was more than 200 nM.). Same read-out and setting: for `COc1cc(CNC[C@H]2CC[C@@H](Nc3nc4c(c(N(C)C)n3)CCCC4)CC2)cc(F)c1O` [compound 1441] the value was 2 (Class 2: The value of percent of control at 10^−7 M was from 40% to 60% or the value of IC′50 was from 50 nM to 200 nM.).

As to `CN(C)c1nc(N[C@H]2CC[C@@H](NC(=S)NC3CCCC3)CC2)nc2c1CCCC2` [compound 1932], the class under setting [2] is 3 (Class 3 The value of percent of control at 10^−7 M was more than 60% or the value of IC50 was more than 200 nM.).

For `Cc1cccc(C(=O)NC[C@H]2CC[C@@H](Nc3nc4c(c(N(C)C)n3)CCCC4)CC2)c1` [compound 612], under setting [1], the class is given as 3 (Class 3 The value of percent of control at 10^−7 M was more than 60% or the value of IC50 was more than 200 nM.). `CN(C)c1ccnc(N[C@H]2CC[C@@H](CNC(=O)OCC(Cl)(Cl)Cl)CC2)n1` [compound 1658]: the class under setting [3] is recorded as 3 (Class 3 The value of percent of control at 10^−7 M was more than 60% or the value of IC50 was more than 200 nM.).

Consider `Cc1cnc(N[C@H]2CC[C@@H](NC(=O)c3ccc(F)cc3F)CC2)nc1N(C)C` [compound 2901, N-(cis-4-{[4-(dimethylamino)-5-methylpyrimidin-2-yl]amino}cyclohexyl)-2,4-difluorobenzamide], for which the class under setting [4] is recorded as 1 (Class 1: The value of percent of control at 10^−7 M was less than 40% or the value of IC50 was less than 50 nM.). Take `COc1cc(OC)cc(C(=O)N[C@H]2CC[C@@H](Nc3nc(C)c(C)c(N(C)C)n3)CC2)c1` [compound 2840, N-(cis-4-{[4-(dimethylamino)-5,6-dimethylpyrimidin-2-yl]amino}cyclohexyl)-3,5-dimethoxybenzamide]: the class under setting [4] is reported as 1 (Class 1: The value of percent of control at 10^−7 M was less than 40% or the value of IC50 was less than 50 nM.).

As for `Cc1cnc(N[C@H]2CC[C@@H](C(=O)N[C@H]3C[C@@H]3c3ccccc3)CC2)nc1N(C)C` [compound 2790, cis-4-{[4-(dimethylamino)-5-methylpyrimidin-2-yl]amino}-N-[(1S,2R)-2-phenylcyclopropyl]cyclohexanecarboxamide], the class under setting [4] is 1 (Class 1: The value of percent of control at 10^−7 M was less than 40% or the value of IC50 was less than 50 nM.). Take `CN(C)c1nc(N[C@H]2CC[C@@H](NC(=S)NCCN3CCCCC3)CC2)nc2c1CCCC2` [compound 2081]: under setting [2], the class is listed as 3 (Class 3 The value of percent of control at 10^−7 M was more than 60% or the value of IC50 was more than 200 nM.).

As to `COc1cc(NC(=O)N[C@H]2CC[C@@H](Nc3cc(N(C)C)c4ccccc4n3)CC2)cc(OC)c1OC` [compound 2149, N-(cis-4-{[4-(dimethylamino)quinolin-2-yl]amino}cyclohexyl)-N′-(3,4,5-trimethoxyphenyl)urea], under setting [1], the class is 1 (Class 1: The value of percent of control at 10^−7 M was less than 40% or the value of IC50 was less than 50 nM.). In the case of `COc1ccccc1C(=O)N[C@H]1CC[C@@H](Nc2ncc(C)c(N(C)C)n2)CC1` [compound 2910], the class under setting [4] is recorded as 3 (Class 3 The value of percent of control at 10^−7 M was more than 60% or the value of IC50 was more than 200 nM.). On the same count and under the same terms, for `Cc1cnc(N[C@H]2CC[C@@H](CNC(=O)c3cccnc3Oc3ccc(Br)cc3)C2)nc1N(C)C` [compound 3012] the value was 2 (Class 2: The value of percent of control at 10^−7 M was from 40% to 60% or the value of IC′50 was from 50 nM to 200 nM.). As to `CN(C)c1cc(N[C@H]2CC[C@@H](NC(=O)c3ccccc3)CC2)nc2ccccc12` [compound 93], the class under setting [2] is on record as 3 (Class 3 The value of percent of control at 10^−7 M was more than 60% or the value of IC50 was more than 200 nM.).

Take `CCOc1ccc(Br)cc1CNC[C@H]1CC[C@@H](Nc2nc3c(c(N(C)C)n2)CCCC3)CC1` [compound 1408]: the class under setting [1] was 3 (Class 3 The value of percent of control at 10^−7 M was more than 60% or the value of IC50 was more than 200 nM.). Take `CN(C)c1ccnc(N[C@H]2CC[C@@H](NC(=O)Nc3c(Cl)cc(Cl)cc3Cl)CC2)n1` [compound 2189, N-(cis-4-{[4-(dimethylamino)pyrimidin-2-yl]amino}cyclohexyl)-N′-(2,4,6-trichlorophenyl)urea]: the class under setting [1] is 1 (Class 1: The value of percent of control at 10^−7 M was less than 40% or the value of IC50 was less than 50 nM.). With `Cc1cc(N(C)C)nc(N[C@H]2CC[C@@H](CNC(=O)c3ccc(Cl)c(Cl)c3)CC2)n1` [compound 2767], under setting [4], the class was 2 (Class 2: The value of percent of control at 10^−7 M was from 40% to 60% or the value of IC′50 was from 50 nM to 200 nM.). On to `COc1ccc(Cl)cc1NC(=O)N[C@H]1CC[C@@H](Nc2nc3c(c(N(C)C)n2)CCCC3)CC1` [compound 1899], for which, under setting [2], the class is on record as 3 (Class 3 The value of percent of control at 10^−7 M was more than 60% or the value of IC50 was more than 200 nM.). `CN(C)c1cc(N[C@H]2CC[C@@H](NC(=O)/C=C/c3ccccc3[N+](=O)[O-])CC2)nc2ccccc12` [compound 726]: the class under setting [1] is reported as 3 (Class 3 The value of percent of control at 10^−7 M was more than 60% or the value of IC50 was more than 200 nM.). For the compound `Cc1cc(F)ccc1NC(=S)N[C@H]1CC[C@@H](Nc2cc(N(C)C)c3ccccc3n2)CC1` [compound 2295], the class (MCH receptor activity class 1-3 (percent of control at 10^-7 M or IC50)) is on record as 3 (Class 3 The value of percent of control at 10^−7 M was more than 60% or the value of IC50 was more than 200 nM.). `CN(C)c1nc(N[C@H]2CC[C@@H](NC(=O)NC34CC5CC(CC(C5)C3)C4)CC2)nc2c1CCCC2` (relative stereo) [compound 1807]: the class under setting [1] was 3 (Class 3 The value of percent of control at 10^−7 M was more than 60% or the value of IC50 was more than 200 nM.). As to `CC(CN[C@H]1CC[C@@H](Nc2cc(N(C)C)c3ccccc3n2)CC1)c1ccccc1` (stereo partly drawn) [compound 1110, N4,N4-dimethyl-N2-{cis-4-[(2-phenylpropyl)amino]cyclohexy}quinoline-2,4-diamine], where the note is “activity class per percent of control at 10^-7 M or IC50”, the class was 3 (Class 3 The value of percent of control at 10^−7 M was more than 60% or the value of IC50 was more than 200 nM.). Regarding `Cc1cc(C(=O)N[C@H]2CC[C@@H](Nc3nc4c(c(N(C)C)n3)CCCC4)CC2)n(C)n1` [compound 539], where the note is “class 1-3 by percent of control at 10^-7 M or IC50”, the class is listed as 2 (Class 2: The value of percent of control at 10^−7 M was from 40% to 60% or the value of IC′50 was from 50 nM to 200 nM.). With `Cc1cc(N(C)C)nc(N[C@H]2CC[C@@H](NC(=O)c3ccc(C(F)(F)F)cc3)CC2)n1` [compound 2972, N-(cis-4-{[4-(dimethylamino)-6-methylpyrimidin-2-yl]amino}cyclohexyl)-4-(trifluoromethyl)benzamide], the class under setting [4] is reported as 2 (Class 2: The value of percent of control at 10^−7 M was from 40% to 60% or the value of IC′50 was from 50 nM to 200 nM.). Still for that read-out and setting: the result for `Cc1cnc(N[C@H]2CC[C@@H](C(=O)Nc3ccc(C(F)(F)F)cc3)CC2)nc1N(C)C` [compound 2791, cis-4-{[4-(dimethylamino)-5-methylpyrimidin-2-yl]amino}-N-[4-(trifluoromethyl)phenyl]cyclohexanecarboxamide] reads 1 (Class 1: The value of percent of control at 10^−7 M was less than 40% or the value of IC50 was less than 50 nM.). In the case of `CN(C)c1nc(N[C@H]2CC[C@@H](NC(=O)Nc3ccc(OCc4ccccc4)cc3)CC2)nc2c1CCCC2` [compound 1881], the class under setting [1] is 3 (Class 3 The value of percent of control at 10^−7 M was more than 60% or the value of IC50 was more than 200 nM.). In the case of `COc1ccccc1OC(=O)N[C@H]1CC[C@@H](Nc2nccc(N(C)C)n2)CC1` [compound 1624], the class under setting [3] is given as 3 (Class 3 The value of percent of control at 10^−7 M was more than 60% or the value of IC50 was more than 200 nM.). For `Cc1nc(N[C@H]2CC[C@@H](NC(=O)c3ccc(Cl)c(Cl)c3)CC2)nc(N(C)C)c1C` [compound 2842, 3,4-dichloro-N-(cis-4-{[4-(dimethylamino)-5,6-dimethylpyrimidin-2-yl]amino}cyclohexyl)benzamide], under setting [4], the class is 1 (Class 1: The value of percent of control at 10^−7 M was less than 40% or the value of IC50 was less than 50 nM.). Regarding `CN(C)c1cc(N[C@H]2CC[C@@H](CNCc3ccccc3OC(F)F)CC2)nc2ccccc12` [compound 1172], the class under setting [1] is given as 3 (Class 3 The value of percent of control at 10^−7 M was more than 60% or the value of IC50 was more than 200 nM.). As for `COc1ccc(Cl)cc1CNC[C@H]1CC[C@@H](Nc2nc3c(c(N(C)C)n2)CCCC3)CC1` [compound 1506], under setting [1], the class was 3 (Class 3 The value of percent of control at 10^−7 M was more than 60% or the value of IC50 was more than 200 nM.). For `COc1cc(Cl)ccc1CNC[C@H]1CC[C@@H](Nc2cc(N(C)C)c3ccccc3n2)CC1` [compound 1475], the class under setting [1] is on record as 3 (Class 3 The value of percent of control at 10^−7 M was more than 60% or the value of IC50 was more than 200 nM.). On to `Cc1ccc(OC(=O)NC[C@H]2CC[C@@H](Nc3cc(N(C)C)c4ccccc4n3)CC2)cc1` [compound 1574], for which, under setting [3], the class was 3 (Class 3 The value of percent of control at 10^−7 M was more than 60% or the value of IC50 was more than 200 nM.). On to `CNC(=S)N[C@H]1CC[C@@H](Nc2nc3c(c(N(C)C)n2)CCCC3)CC1` [compound 1951], for which the class under setting [2] is recorded as 3 (Class 3 The value of percent of control at 10^−7 M was more than 60% or the value of IC50 was more than 200 nM.).
